Source: US20240139216A1, “STABLE ORAL CANNABIDIOL COMPOSITIONS” (CARDIOL THERAPEUTICS INC., priority 2020, published 2024)

Tests used:
[1] = Solubility of CBD in BCP; type: physicochemical; settings: in 1 mL of BCP
Description: For example, at least 300 mg of CBD can be dissolved in 1 mL of BCP. The enhanced stability of the CBD provides a composition with an acceptable shelf life and which can provide consistency in dosing and enhanced safety.

[2] = target: CB2 receptor (Homo sapiens, UniProt P34972); settings: Proc Natl Acad Sci USA 2008; 105(26):9099-104; cited from earlier work
Sequence of CB2 receptor (P34972 whole entry): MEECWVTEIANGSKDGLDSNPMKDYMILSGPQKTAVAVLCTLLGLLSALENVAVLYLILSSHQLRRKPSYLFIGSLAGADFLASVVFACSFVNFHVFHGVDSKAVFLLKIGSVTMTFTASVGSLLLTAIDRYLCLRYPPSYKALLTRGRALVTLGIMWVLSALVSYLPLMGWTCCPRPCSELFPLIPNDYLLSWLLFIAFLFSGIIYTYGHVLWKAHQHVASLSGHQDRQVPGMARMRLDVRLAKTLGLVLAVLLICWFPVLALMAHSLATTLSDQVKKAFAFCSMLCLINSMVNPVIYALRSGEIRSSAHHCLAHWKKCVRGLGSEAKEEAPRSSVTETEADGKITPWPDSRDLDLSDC

Structure (SMILES) | amount of CBD that can be dissolved in BCP [1] | binding to the CB2 receptor [2] | functional activity at the CB2 receptor [2]
C=C(C)[C@@H]1CCC(C)=C[C@H]1c1c(O)cc(CCCCC)cc1O [CBD, cannabidiol] | at least 300 mg | – | –
C=C1CC/C=C(\C)CC[C@@H]2[C@@H]1CC2(C)C (relative stereo) [β-caryophyllene, trans-(1R,9S)-8-Methylene-4,11,11-trimethylbicyclo[7.2.0]undec-4-ene] | – | selectively binds to the CB2 receptor | functional CB2 agonist
